# Laboratory results from US20260000670A1 (priority 2022, published 2026).
# Key:
# [1] = tested on: murine splenocytes; assay: AAV8-dependent cytokine and chemokine release by murine splenocytes; assay type: cell-based, C57BL/6 mouse; conditions: dasatinib 100 nM, 50 nM or 12.5 nM; 24 hrs, AAV8-hSeap MOI 1E5
# Protocol: Splenocytes were isolated from a C57/B16 mouse and incubated for 24 hrs with AAV8-hSeap at MOI 1E5 in the presence or absence of dasatinib (100 nM, 50 nM or 12.5 nM). Cytokines and chemokines were measured in the culture supernatants. LPS (positive) and PBS (negative) controls are shown on the graphs. Means+/−SD (triplicates). Dashed line: Lower limit of quantification.
# To investigate the mechanism of dasatinib-mediated inhibition of the humoral response to AAV8 observed in mice (Examples 1 and 5), we looked whether the rapid production of cytokines and chemokines by immune cells was affected by the dasatinib treatment. Total splenocytes from a C57BL/6 mouse were cultured for 24 hrs in the presence or absence of dasatinib at different concentrations. Cytokines and chemokines secreted in the culture supernatants were analyzed using ProcartaPlex Immunoassays (Luminex).
# [2] = tested on: mice; assay: hFIX transgene expression after re-dosing, 1-week vs 2-week dasatinib treatment; assay type: in vivo
# Protocol: FIG. 7: In vivo study to assess the impact of prolonging the dasatinib treatment. All mouse groups, except Group 1, were immunized on day 1 with an i.v. injection of AAV8-hSeap (1e12 vg/kg). Four groups received an i.v. injection of AAV8-FactorIX (3e13 vg/kg) on day 43. Concomitantly to the first AAV administration, Groups 3 and 4 were treated with dasatinib for either 1 or 2 weeks, respectively. Dasatinib was administered at the dose of 50 mg/kg per oral gavage, twice per day and starting 1 hr before the first AAV treatment.
# FIG. 10: Prolongation of dasatinib treatment upon first AAV8 dosing improves transgene expression after readministration. In the experiment described in FIG. 10, the levels of hFIX expression (ng/mL, median+/−SD) were measured for each group, starting on day 42 (one day before administration of AAV8-hFIX) and up to day 64.
# In the experiment described in Example 1, despite the strong inhibition of anti-AAV antibody formation observed in most of the mice, 4 out of 10 dasatinib-treated animals started to develop anti-AAV8 IgG before re-dosing (FIG. 3C, days 15-21). […]
# The inhibition of antibody formation to AAV8 correlated with the improvement of hFIX transgene expression after re-dosing, showing efficient transduction by the second AAV8(FIG. 10). Expression of hFIX was inversely correlated with the IgG and IgM titers measured on day 42 before re-dosing.
# [3] = tested on: human whole blood; assay: AAV8-dependent cytokine release in human whole blood from four healthy donors with IVIG; assay type: cell-based
# Protocol: FIGS. 6A-6C: Dasatinib inhibits AA V8-dependent cytokine release in human whole blood. Fresh whole blood from 4 healthy donors was incubated with either PBS or AAV8-hSEAP (5e11 vg/mL) with IVIG (PRIVIGEN, 1/100) for 24 hrs. Dasatinib was added at the concentration of 50 nM 1 hr before addition of AAV8. In some of the culture wells, a second dose of dasatinib was added 9 hrs after AAV8 treatment (dasa 50 nM 2x). After 24 hrs, the plasma was collected and cytokines measured using Quanterix kits. Depicted are the cytokine fold increases over PBS for IFN-γ and TNF-α (FIG. 6A), IL-6 and IL-1x (FIG. 6B), and IL-2 and IL-1β (FIG. 6C), with the percentages of inhibition in the presence of dasatinib (means +/−SEM).
# To study in more detail the effects of dasatinib on AAV-dependent cytokine release, another whole blood assay was performed. Whole blood from four healthy donors was incubated with AAV8-hSEAP (5e11 vg/ml) for 24 hrs. Intravenous Immunoglobulin (IVIG, Privigen) which contains anti-AAV antibodies was added to the blood samples. Dasatinib was added at 50 nM 1 hr before the AAV treatment, PBS was used as a negative control. As the half-life of dasatinib is very short (Lindauer M et al, Recent Results Cancer Res. 2010;184:83-102), a second dasatinib addition was performed 9 hrs after the AAV treatment. After 24 hrs, plasma supernatants were collected and cytokines measured using Quanterix kits. […] Inhibition of AAV-mediated cytokine release likely contributes to the effect of dasatinib on antibody formation.
# [4] = tested on: human whole blood; assay: AAV-mediated cytokine release in human whole blood (one AAV8 pre-immune donor); assay type: cell-based; conditions: dasatinib 12.5 or 50 nM, 24 hrs with 5E11 vg/mL AAV8-hSEAP
# Protocol: FIGS. 5A-5B. Effect of dasatinib on AAV-mediated cytokine release in human whole blood. The production of low levels of IFN-γ and IL-6 in whole blood are stimulated after 24 hrs incubation with 5E11 vg/mL of AAV8-hSEAP. […] Depicted are cytokine concentrations (pg/mL+/−SD, left), fold increases over the level measured in the PBS control (middle) and percentages of inhibition of AAV-dependent cytokine release (right, calculated as 100 × (concentration with AAV8 alone-concentration with AAV8 and dasatinib)/(concentration with AAV8 alone)), respectively. (FIG. 5A) Interferon-γ production. (FIG. 5B) IL-6 production.
# To assess whether dasatinib could affect AAV-mediated cytokine release, an assay was performed in whole blood from a healthy donor. This donor was seropositive for anti-AAV8 antibodies (IgG titer: 1/21870; IgM titer: 1/810). Whole blood from an AAV8 pre-immune donor was incubated in triplicates with 5E11 vg/mL (GC/mL) of an AAV8-hSEAP vector, in the presence or absence of 12.5 nM or 50 nM dasatinib. Lipopolysaccharide (LPS) and Lemtrada (alemtuzumab, anti-CD52, Genzyme), a monoclonal antibody known to induce strong cytokine release in blood, were used as positive controls at a concentration of 1 μg/ml and 0.1 μg/ml respectively. […] After 24 hrs, plasma supernatants were collected and cytokines measured using Quanterix kits with the SP-X imaging and analysis system (Simoa).
# [5] = dasatinib 50 nM, 24 hrs, AAV8-hSEAP 5e11 vg/ml with IVIG
smiles,measurement,setting,value
"Cc1nc(Nc2ncc(C(=O)Nc3c(C)cccc3Cl)s2)cc(N2CCN(CCO)CC2)n1 [dasatinib, N-(2-chloro-6-methylphenyl)-2-[[6-[4-(2-hydroxyethyl)-1-piperazinyl]-2-methyl-4-pyrimidinyl]amino]-5-thiazole carboxamide monohydrate]",IL-6 in culture supernatant,[1],dose-dependent decreases
same,IP-10/CXCL10 in culture supernatant,[1],dose-dependent decreases
same,MCP-1 in culture supernatant,[1],dose-dependent decreases
same,MCP-3 in culture supernatant,[1],dose-dependent decreases
same,MIP-1α in culture supernatant,[1],dose-dependent decreases
same,MIP-1β in culture supernatant,[1],dose-dependent decreases
same,MIP-2α in culture supernatant,[1],dose-dependent decreases
same,TNF-α in culture supernatant,[1],dose-dependent decreases
same,"expression of hFIX, 2-week treatment compared with 1-week treatment","[2]; Group 4 (2 weeks) vs Group 3 (1 week), after AAV8-FactorIX 3e13 vg/kg on day 43",higher
same,hFIX levels in mice that remained IgG-negative on day 42,"[2]; day 64, dasatinib-treated mice",in the range of those measured in the non-immunized control Group 1
same,inhibition of cytokine production with second dasatinib addition versus single addition,[3]; dasatinib 50 nM added both 1 hr before and 9 hrs after AAV treatment,more pronounced
same,production of IFN-Y,[3]; [5],inhibited
same,production of IL-1β,[3]; [5],inhibited
same,production of IL-2,[3]; [5],inhibited
same,production of IL-6,[3]; [5],inhibited
same,production of IL-la,[3]; [5],inhibited
same,production of TNF-α,[3]; [5],inhibited
same,IFN-γ production,[4],reduced dose-dependently
same,IL-6 production,[4],reduced dose-dependently
